This note sets out measurements from US12180193B2, “Accelerating fibrosarcoma protein degrading compounds and associated methods of use” (Arvinas Operations, Inc., priority 2020, dated 2024).

As a reminder, the DC50 is the concentration at which degradation of the target reaches its halfway point. What is called Dmax is the largest share of the target that was removed. High values mean a fuller loss of target, low ones a partial loss of target.

Molecules are shown by their SMILES. Bounds are passed on as bounds.

One assay addresses T1, BRAF V600E (Homo sapiens, UniProt P15056, V600E).
T1 construct: expressed in transfected cells
Kind of assay: Cellular assay of target protein degradation, T-Rex 293 cells stably transfected with HA-BRAF_V600E (HA immunofluorescence, high content imaging). The conditions noted are these: T-Rex 293 HA-BRAF V600E; for DC50: half maximal degradation, read-out: BRaf V600E DC50; for Dmax: maximum degradation observed. In kind it is cell-based. The procedure, abridged:
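Doxycycline-induced (1 ng/mL) cells were treated 24 h at 37 °C with compound at 1 μM to 0.1 nM final in 0.1% DMSO. After fixation, permeabilization and blocking, anti-HA staining was imaged by high-content reading; DC50 and Dmax (% of control) were derived.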

A further assay addresses T2, BRAF G466V (Homo sapiens, UniProt P15056, G466V).
T2 construct: expressed in transfected cells
Kind of assay: Cellular assay of target protein degradation, T-Rex 293 cells stably transfected with HA-BRAF G466V (HA immunofluorescence, high content imaging). The note with it: T-Rex 293 HA-BRAF G466V; for DC50: half maximal degradation, read-out: BRaf G466V DC50; for Dmax: maximum degradation observed. In kind it is cell-based. The procedure, abridged:
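Cells expressing doxycycline-induced (0.75 ng/mL) HA-BRAF G466V were treated with compound at 30 nM to 3 pM in 0.1% DMSO for 24 hours at 37° C. After fixation and permeabilization, HA was immunostained and quantified by high content imaging to derive DC50 and Dmax.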

T1 sequence (P15056 whole entry V600E): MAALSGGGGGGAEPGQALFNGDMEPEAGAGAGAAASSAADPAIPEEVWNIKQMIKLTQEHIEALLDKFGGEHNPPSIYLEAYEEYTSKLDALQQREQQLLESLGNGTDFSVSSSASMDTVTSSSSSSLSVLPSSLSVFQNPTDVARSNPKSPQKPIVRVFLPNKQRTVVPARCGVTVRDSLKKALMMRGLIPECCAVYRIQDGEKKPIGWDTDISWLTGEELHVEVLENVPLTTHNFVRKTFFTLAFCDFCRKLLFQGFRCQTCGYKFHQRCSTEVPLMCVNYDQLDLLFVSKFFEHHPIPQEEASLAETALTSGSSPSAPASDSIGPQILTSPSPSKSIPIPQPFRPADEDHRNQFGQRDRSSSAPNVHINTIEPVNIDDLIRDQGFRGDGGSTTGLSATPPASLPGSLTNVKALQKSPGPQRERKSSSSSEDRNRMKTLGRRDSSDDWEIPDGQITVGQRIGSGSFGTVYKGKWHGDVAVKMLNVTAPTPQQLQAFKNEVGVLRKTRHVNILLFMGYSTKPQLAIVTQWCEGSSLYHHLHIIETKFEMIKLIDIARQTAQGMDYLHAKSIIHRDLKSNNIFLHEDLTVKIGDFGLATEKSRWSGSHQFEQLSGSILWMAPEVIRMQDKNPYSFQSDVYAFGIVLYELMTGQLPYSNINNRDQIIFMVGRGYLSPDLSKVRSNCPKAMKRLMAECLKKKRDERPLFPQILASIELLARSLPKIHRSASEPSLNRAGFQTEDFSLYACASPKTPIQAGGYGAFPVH
T2 sequence (P15056 whole entry G466V): as the sequence (P15056 whole entry V600E) above, with G466V, E600V counted along it

Take `COc1cc(C2CCN(CC3CCN(c4ccc(-c5cnc6[nH]cc(C(=O)c7c(F)ccc(NS(=O)(=O)N8CC[C@@H](F)C8)c7F)c6c5)cc4F)CC3)CC2)cc2c1C(=O)N(C1CCC(=O)NC1=O)C2` (stereo partly drawn) [Compound 163, (3R)-N-[3-(5-{4-[4-({4-[2-(2,6-dioxopiperidin-3-yl)-7-methoxy-1-oxo-2,3-dihydro-1H-isoindol-5-yl]piperidin-1-yl}methyl)piperidin-1-yl]-3-fluorophenyl}-1H-pyrrolo [2,3-b]pyridine-3-carbonyl)-2,4-difluorophenyl]-3-fluoropyrrolidine-1-sulfonamide]: at BRAF V600E, the DC50 lay in the range of 5 to 50 nM and the Dmax lay within 35 to 70%. At BRAF G466V, the DC50 lay within 1 to 10 nM and the Dmax was above 70%.

Take `COc1cc(C2CCN(CC3CCN(c4ccc(-c5cnc6[nH]cc(C(=O)c7c(F)ccc(NS(=O)(=O)N8CC[C@@H](F)C8)c7F)c6c5)cn4)CC3)CC2)cc2c1C(=O)N(C1CCC(=O)NC1=O)C2` (stereo partly drawn) [Compound 164, (3R)-N-[3-(5-{6-[4-({4-[2-(2,6-dioxopiperidin-3-yl)-7-methoxy-1-oxo-2,3-dihydro-1H-isoindol-5-yl]piperidin-1-yl}methyl)piperidin-1-yl]pyridin-3-yl}-1H-pyrrolo[2,3-b]pyridine-3-carbonyl)-2,4-difluorophenyl]-3-fluoropyrrolidine-1-sulfonamide]: on BRAF V600E, the DC50 was in the range of 5 to 50 nM and the Dmax is 35 to 70%. Moreover, on BRAF G466V, the DC50 is below 1 nM and the Dmax is above 70%.

As for `O=C1CC[C@H](N2Cc3cc(OC[C@@H](O)CN4CC5(C4)CN(c4ccc(-c6cnc7[nH]cc(C(=O)c8c(F)ccc(NS(=O)(=O)N9CC[C@@H](F)C9)c8F)c7c6)cc4)C5)ccc3C2=O)C(=O)N1` [Compound 165, (3R)-N-{3-[5-(4-{6-[(2S)-3-({2-[(3S)-2,6-dioxopiperidin-3-yl]-1-oxo-2,3-dihydro-1H-isoindol-5-yl}oxy)-2-hydroxypropyl]-2,6-diazaspiro[3.3]heptan-2-yl}phenyl)-1H-pyrrolo[2,3-b]pyridine-3-carbonyl]-2,4-difluorophenyl}-3-fluoropyrrolidine-1-sulfonamide], on BRAF V600E, the DC50 was 5 to 50 nM and the Dmax fell in the range of 35 to 70%. Also, on BRAF G466V, the DC50 lay within 1 to 10 nM and the Dmax was above 70%.

As for `O=C1CC[C@@H](N2Cc3cc(OC[C@@H](O)CN4CC5(C4)CN(c4ccc(-c6cnc7[nH]cc(C(=O)c8c(F)ccc(NS(=O)(=O)N9CC[C@@H](F)C9)c8F)c7c6)cc4)C5)ccc3C2=O)C(=O)N1` [Compound 166, (3R)-N-{3-[5-(4-{6-[(2)S-3-({2-[(3R)-2,6-dioxopiperidin-3-yl]-1-oxo-2,3-dihydro-1H-isoindol-5-yl}oxy)-2-hydroxypropyl]-2,6-diazaspiro[3.3]heptan-2-yl}phenyl)-1H-pyrrolo[2,3-b]pyridine-3-carbonyl]-2,4-difluorophenyl}-3-fluoropyrrolidine-1-sulfonamide], on BRAF V600E, the DC50 lay in the range of 5 to 50 nM and the Dmax lay in the range of 35 to 70%. Further, at BRAF G466V, the DC50 was in the range of 1 to 10 nM and the Dmax was above 70%.

Take `CN(CC1CCN(c2ccc3c(c2)CN(C2CCC(=O)NC2=O)C3=O)CC1)[C@H]1C[C@@H](Oc2ccc(-c3cnc4[nH]cc(C(=O)c5c(F)ccc(NS(=O)(=O)N6CC[C@@H](F)C6)c5F)c4c3)cc2)C1` (stereo partly drawn) [Compound 167, (3R)-N-[2,4-difluoro-3-(5-{4-[(1s,3s)-3-[({1-[2-(2,6-dioxopiperidin-3-yl)-1-oxo-2,3-dihydro-1H-isoindol-5-yl]piperidin-4-yl}methyl)(methyl)amino]cyclobutoxy)phe-nyl}-1H-pyrrolo[2,3-b]pyridine-3-carbonyl)phenyl]-3-fluoropyrrolidine-1-sulfonamide]: the values for the DC50 on BRAF V600E and on BRAF G466V were 5 to 50 nM and 1 to 10 nM, respectively. Besides, the Dmax on BRAF V600E and on BRAF G466V was 35 to 70% throughout.

Take `O=C1CCC(c2ccc(C3CCN(CC4CCN(c5ccc(-c6cnc7[nH]cc(C(=O)c8c(F)ccc(NS(=O)(=O)N9CC[C@@H](F)C9)c8F)c7c6)cc5)CC4)CC3)cc2F)C(=O)N1` (stereo partly drawn) [Compound 168, (3R)-N-[3-(5-{4-[4-({4-[4-(2,6-dioxopiperidin-3-yl)-3-fluorophenyl]piperidin-1-yl}methyl)piperidin-1-yl]phenyl}-1H-pyrrolo[2,3-b]pyridine-3-carbonyl)-2,4-difluorophenyl]-3-fluoropyrrolidine-1-sulfonamide]: on BRAF V600E, the DC50 lay within 5 to 50 nM and the Dmax was below 35%. At BRAF G466V, the DC50 was 1 to 10 nM and the Dmax was above 70%.

Turning to `CN1C(=O)CCC(N2Cc3cc(C4CCN(CC5CCN(c6ccc(-c7cnc8[nH]cc(C(=O)c9c(F)ccc(NS(=O)(=O)N%10CC[C@@H](F)C%10)c9F)c8c7)cc6)CC5)CC4)ccc3C2=O)C1=O` (stereo partly drawn) [Compound 169, (3R)-N-[2,4-difluoro-3-(5-{4-[4-({4-[2-(1-methyl-2,6-dioxopiperidin-3-yl)-1-oxo-2,3-dihydro-1H-isoindol-5-yl]piperidin-1-yl}methyl)piperidin-1-yl]phenyl}-1H-pyrrolo[2,3-b]pyridine-3-carbonyl)phenyl]-3-fluoropyrrolidine-1-sulfonamide], the DC50 is above 500 nM at BRAF V600E and above 30 nM at BRAF G466V.

For `O=C1CC[C@H](N2Cc3cc(C[C@H](O)CN4CC5(C4)CN(c4ccc(-c6cnc7[nH]cc(C(=O)c8c(F)ccc(NS(=O)(=O)N9CC[C@@H](F)C9)c8F)c7c6)cc4)C5)ccc3C2=O)C(=O)N1` [Compound 170, (3R)-N-{3-[5-(4-{6-[(2S)-3-{2-[(3S)-2,6-dioxopiperidin-3-yl]-1-oxo-2,3-dihydro-1H-isoindol-5-yl}-2-hydroxypropyl]-2,6-diazaspiro[3.3]heptan-2-yl}phenyl)-1H-pyrrolo[2,3-b]pyridine-3-carbonyl]-2,4-difluorophenyl}-3-fluoropyrrolidine-1-sulfonamide], the DC50 is 50 to 500 nM on BRAF V600E and 1 to 10 nM on BRAF G466V. The results for the Dmax at BRAF V600E and at BRAF G466V were 35 to 70% and above 70%, respectively.

For the compound `O=C1CC[C@H](N2Cc3cc(CC[C@H](O)CN4CC5(C4)CN(c4ccc(-c6cnc7[nH]cc(C(=O)c8c(F)ccc(NS(=O)(=O)N9CC[C@@H](F)C9)c8F)c7c6)cc4)C5)ccc3C2=O)C(=O)N1` [Compound 172, (3R)-N-{3-[5-(4-{6-[(2S)-4-{2-[(3S)-2,6-dioxopiperidin-3-yl]-1-oxo-2,3-dihydro-1H-isoindol-5-yl}-2-hydroxybutyl]-2,6-diazaspiro[3.3]heptan-2-yl}phenyl)-1H-pyrrolo[2,3-b]pyridine-3-carbonyl]-2,4-difluorophenyl}-3-fluoropyrrolidine-1-sulfonamide], at BRAF V600E, the DC50 is 5 to 50 nM and the Dmax was 35 to 70%. At BRAF G466V, the DC50 lay in the range of 1 to 10 nM and the Dmax was above 70%.

On to `O=C1CC[C@@H](N2Cc3cc(CC[C@H](O)CN4CC5(C4)CN(c4ccc(-c6cnc7[nH]cc(C(=O)c8c(F)ccc(NS(=O)(=O)N9CC[C@@H](F)C9)c8F)c7c6)cc4)C5)ccc3C2=O)C(=O)N1` [Compound 173, (3R)-N-{3-[5-(4-{6-[(2S)-4-{2-[(3R)-2,6-dioxopiperidin-3-yl]-1-oxo-2,3-dihydro-1H-isoindol-5-yl}-2-hydroxybutyl]-2,6-diazaspiro[3.3]heptan-2-yl}phenyl)-1H-pyrrolo[2,3-b]pyridine-3-carbonyl]-2,4-difluorophenyl}-3-fluoropyrrolidine-1-sulfonamide], for which, at BRAF V600E, the DC50 lay within 5 to 50 nM and the Dmax is 35 to 70%. Further, on BRAF G466V, the DC50 was 1 to 10 nM and the Dmax was above 70%.

As to `O=C1CCC(N2Cc3cc(N4CCC(CN5CCC(C6(c7ccc(-c8cnc9[nH]cc(C(=O)c%10c(F)ccc(NS(=O)(=O)N%11CC[C@@H](F)C%11)c%10F)c9c8)cc7)CC6)CC5)CC4)ccc3C2=O)C(=O)N1` (stereo partly drawn) [Compound 174, (3R)-N-{3-[5-(4-{1-[1-({1-[2-(2,6-dioxopiperidin-3-yl)-1-oxo-2,3-dihydro-1H-isoindol-5-yl]piperidin-4-yl}methyl)piperidin-4-yl]cyclopropyl}phenyl)-1H-pyrrolo[2,3-b]pyridine-3-carbonyl]-2,4-difluorophenyl}-3-fluoropyrrolidine-1-sulfonamide], at BRAF V600E, the DC50 was in the range of 5 to 50 nM and the Dmax is below 35%. Further, on BRAF G466V, the DC50 fell in the range of 1 to 10 nM and the Dmax was above 70%.

With `COc1cc(C2CCN(CC3CCN(c4ncc(-c5cnc6[nH]cc(C(=O)c7c(F)ccc(NS(=O)(=O)N8CC[C@@H](F)C8)c7F)c6c5)cn4)CC3)CC2)cc2c1C(=O)N(C1CCC(=O)NC1=O)C2` (stereo partly drawn) [Compound 175, (3R)-N-[3-(5-{2-[4-({4-[2-(2,6-dioxopiperidin-3-yl)-7-methoxy-1-oxo-2,3-dihydro-1H-isoindol-5-yl]piperidin-1-yl}methyl)piperidin-1-yl]pyrimidin-5-yl}-1H-pyrrolo[2,3-b]pyridine-3-carbonyl)-2,4-difluorophenyl]-3-fluoropyrrolidine-1-sulfonamide], at BRAF V600E, the DC50 fell in the range of 5 to 50 nM and the Dmax fell in the range of 35 to 70%. On BRAF G466V, the DC50 is below 1 nM and the Dmax is above 70%.

Consider `CC1(c2ccc(C3CCN(CC4CCN(c5ccc(-c6cnc7[nH]cc(C(=O)c8c(F)ccc(NS(=O)(=O)N9CC[C@@H](F)C9)c8F)c7c6)cc5)CC4)CC3)cc2F)CCC(=O)NC1=O` (stereo partly drawn) [Compound 176, (3R)-N-[2,4-difluoro-3-(5-{4-[4-({4-[3-fluoro-4-(3-methyl-2,6-dioxopiperidin-3-yl)phenyl]piperidin-1-yl}methyl)piperidin-1-yl]phenyl}-1H-pyrrolo[2,3-b]pyridine-3-carbonyl)phenyl]-3-fluoropyrrolidine-1-sulfonamide], for which, on BRAF V600E, the DC50 was 5 to 50 nM and the Dmax was below 35%. Besides, on BRAF G466V, the DC50 lay in the range of 1 to 10 nM and the Dmax was 35 to 70%.
